Where no end group is shown, it is not given here. [ ]: non-standard residue; d: D form.
Assays:
[1] = system: LHRHR-positive A2780 human ovarian carcinoma cells; test: Cytotoxicity, modified MTT assay; assay type: cell-based; conditions: for toxicity: LHRHR-positive cancer cells, up to the highest possible concentration
Experimental: (§1) In contrast, LHRH-BH3 peptide was not toxic in cancer cells not expressing LHRHR. Further, non-targeted Ant-BH3 peptide was toxic in both LHRHR-positive and negative cancer cells. […] Thus, the LHRH peptide specifically targets cancer cells expressing the LHRHR and facilitates the uptake of LHRH-conjugates.
Cytotoxicity of CPT, CPT-PEG, CPT-PEG-BH3, and CPT-PEG-LHRH conjugates and the combination of CPT-PEG-BH3 with CPT-PEG-LHRH conjugates was analyzed using a modified MTT assay (Minko, et al. (1998) supra) in sensitive A2780 and multidrug resistant A2780/AD human ovarian carcinoma cells.
(§2) Cytotoxicity. The cytotoxicity of drugs were assessed using a modified MTT (3-(4,5-dimethylthiazol-2-yl)-2,5-diphenyltetrazolium bromide) assay (Kunath, et al. (2000) Eur. J. Pharm. Biopharm 49:11-15; Minko, et al. (1998) J. Controlled Rel. 54:223-233; Minko, et al. (1999) J. Controlled Rel. 59:133-148; Minko, et al. (2002) Cancer Chemother. Pharmacol. 50:143-150). To measure cytotoxicity, cells were incubated in a 96-well microtiter plate with 45 different equivalent concentrations of CPT ranging from […] in a complex conjugate. Six wells were used for control cells. The duration of incubation was varied from 3 to 72 hours to find an optimal range of incubation time for each complex conjugate.

[2] = system: genes encoding antiapoptotic members of the BCL-2 protein family; test: RT-PCR expression of genes encoding antiapoptotic members of the BCL-2 protein family; assay type: cell-based, human; conditions: 48 hours, IC50 dose of Ant-BH3 peptide; β2-m internal standard
Experimental: (§3) The influence of BH3 peptide, delivered by an Ant-BH3 fusion peptide, on the expression of proteins and genes encoding proapoptotic and antiapoptotic members of the BCL-2 protein family was determined. The expression of genes was measured by RT-PCR using β2-m as an internal standard.
(§4) Cell death signaling pathways. To characterize the cell death signaling pathways, the expression of p53, c-fos, c-jun, proapoptotic (BAD, BAX, BCL-G, BCL-W, BCL-XS, BID, BIK, BIM, BNIP 1-3, HARAKIR1, MSL-1S, NIX) and antiapoptotic (BCL-2, AVEN, BAG, BCL-XL, BFL, DAD1, MSL-1) members of BCL-2 family of proteins and genes encoding these proteins were measured by western blot analysis and RT-PCR, respectively using well-established methods known to those of skill in the art.
(§5) Gene expression. A combination of reverse transcription (RT) and polymerase chain reaction (PCR) was used for the analysis of gene expression as described (Minko, et al. (1999) J. Controlled Rel. 59:133-148). Briefly, total cellular RNA was isolated using an RNeasy kit (QIAGEN,™, Valencia, Calif.) and a […]™ micro-spin homogenizer (QIAGEN). First-strand cDNA was synthesized by Ready-To-Go You-Prime First-Strand Beads (Amersham Biosciences, Piscataway, N.J.) according to the manufacturer's instructions with 2 μg of total cellular RNA (from 1×10^7 cells) and 100 ng of random hexadeoxynucleotide primer (Amersham Biosciences, Piscataway, N.J.). After synthesis, the reaction mixture was diluted 1:3 with water and immediately subjected to PCR, which was carried out using GenAmp PCR System 2400 (Perkin Elmer Instruments, Shelton, Conn.). The pairs of primers used to amplify each type of cDNA and PCR regimes are well-known in the art (Kunath, et al. (2000) supra; Minko, et al. (2003) supra; Minko, et al. (2002) supra; Minko, et al. (1999) supra; Minko, et al. (2000) supra; Minko, et al. (2001) supra). PCR products were separated in 4% NUSIEVE® 3:1 RELIANT® agarose gels (BMA, East Rutherford, N.J.) in 1×TBE buffer (0.089 M Tris/Borate, 0.002 M EDTA, pH 8.3) by submarine electrophoresis. The gels were stained with ethidium bromide and digitally photographed. To calculate the size and amount of PCR products, a Low DNA Mass ladder (GibcoBRL, Carlsbad, Calif.) was used. β2-microglobulin was used as an internal standard and to confirm the efficacy of PCR (Kunath, et al. (2000) supra; Minko, et al. (2001) supra).

[3] = system: genes encoding proapoptotic members of the BCL-2 protein family; test: RT-PCR expression of genes encoding proapoptotic members of the BCL-2 protein family; assay type: cell-based, human; conditions: 48 hours, IC50 dose of Ant-BH3 peptide; β2-m internal standard
Experimental: as §3, §4, §5

[4] = system: human ovarian carcinoma cells; test: Mitochondrial transmembrane potential, JC-1 probe, flow cytometry; assay type: cell-based; conditions: JC-1 red/green fluorescence ratio
Experimental: (§6) By way of example, the effectiveness of a BH3 peptide ([…] SEQ ID NO:1) to increase cell death by inducing the mitochondrial dysfunction leading to necrosis was measured. BH3 peptide was delivered into human ovarian carcinoma cells by the Antennapedia (Ant) internalization sequence (Arg-Gln-Ile-lys-[…] SEQ ID NO:2). Mitochondrial function was assessed by flow cytometry analysis using the lipophilic cationic fluorescent probe 5,5′,6,6′-tetrachloro-1,1′,3,3′-tetraethylbenzimidazolcarbo-cyanine iodide (JC-1). This probe exists as a monomer, and upon excitation at 490 nm, emits light at 527 nm resulting in green fluorescence. At high mitochondrial transmembrane potential, JC-1 forms multimers, known as J-aggregates, and emits light at 590 nm upon excitation at 490 nm resulting in red fluorescence. Therefore, the red/green fluorescence ratio measured by flow cytometry reflects the number of functioning mitochondria. Ant alone was not toxic up to the highest possible concentration (1 mg/mL). In contrast, the combination of Ant with BH3 peptide led to a significant increase in toxicity of the peptide. […] The effect of the Ant-BH3 peptide on mitochondrial transmembrane potential was also determined.

[5] = system: A2780 human ovarian carcinoma cells; test: RT-PCR expression of caspases, APAF-1 and SMAC; assay type: cell-based
Experimental: The effect of the LHRH-BH3 peptide on apoptosis was analyzed by measuring transcriptional and translational levels and activity of human caspases. […] Active caspase 9, in turn, activates a cascade of downstream caspases, as evidenced by increased expression levels, which subsequently leads to induction of apoptosis.
Cystein aspartate-specific proteases (caspases). Three approaches were used to analyze the role of each of the human caspases in the apoptosis induction. First, the expression of genes encoding human caspases 1-10 and the Apoptotic Protease Activating Factor (APAF-1) and Second Mitochondria-Derived Activator of Caspase (SMAC) were studied by RT-PCR (Minko, et al. (1999) supra; Minko, et al. (2000) supra). […] Therefore, in addition to the measurement of the gene expression, the amount of active caspases and activity of the enzymes was measured. The amount of active caspases was estimated by western blot analysis. The activity of expressed caspases was measured using the Caspase Protease Assay kit (MBL International, Watertown, Mass.) or a colorimetric protease assay kit (PanVera, Madison, Wis.) (Minko, et al. (2001) supra). Cells were separately incubated with the conjugates for 48 hours. The assay colormetric assay is based on the spectrophotometric detection of the chromophore p-nitroanilide (pNA) after cleavage from the substrate, X-pNA. An increase in caspase activity was determined by comparing levels in cells exposed to conjugates to levels in cells of the untreated control incubated with saline.
as §5

[6] = system: cancer cells not expressing LHRHR; test: Cytotoxicity in LHRHR-negative cancer cells; assay type: cell-based
Experimental: as §1, §2

[7] = system: human ovarian carcinoma cells; test: Cytotoxicity (IC50 dose) of Ant, Ant-BH3 peptide and DOX; assay type: cell-based; conditions: highest possible concentration
Experimental: as §6, with “mitochondria.” for “mitochondria. Ant alone was not toxic up to the highest possible concentration (1 mg/mL). In contrast, the combination of Ant with BH3 peptide led to a significant increase in toxicity of the peptide.”
Cytotoxicity. The cytotoxicity of drugs were assessed using a modified MTT (3-(4,5-dimethylthiazol-2-yl)-2,5-diphenyltetrazolium bromide) assay (Kunath, et al. (2000) Eur. J. Pharm. Biopharm 49:11-15; Minko, et al. (1998) J. Controlled Rel. 54:223-233; Minko, et al. (1999) J. Controlled Rel. 59:133-148; Minko, et al. (2002) Cancer Chemother. Pharmacol. 50:143-150). […]

[8] = system: A2780 human ovarian carcinoma cells; test: Expression of BCL-2, BCL-XL, SMAC, APAF-1, caspase 9 and caspase 3 genes after CPT conjugates; assay type: cell-based; conditions: 48-hour incubation
Experimental: The expression of genes encoding antiapoptotic members of the BCL-2 protein family (BCL-2 and BCL-XL), caspase activators (SMAC and APAF-1), caspase 9 (apoptosis inhibitor) and caspase 3 (apoptosis executor) as well as the activity of the caspases was measured after a 48-hour incubation of A2780 human ovarian carcinoma cells with CPT, CPT-PEG, CPT-PEG-BH3, or CPT-PEG-LHRH conjugates.
Gene expression. A combination of reverse transcription (RT) and polymerase chain reaction (PCR) was used for the analysis of gene expression as described (Minko, et al. (1999) J. Controlled Rel. 59:133-148). Briefly, total cellular RNA was isolated using an RNeasy kit (QIAGEN,™, Valencia, Calif.) and a […] ™ micro-spin homogenizer (QIAGEN). First-strand cDNA was synthesized by Ready-To-Go You-Prime First-Strand Beads (Amersham Biosciences, Piscataway, N.J.) according to the manufacturer's instructions with 2 μg of total cellular RNA (from 1×10^7 cells) and 100 ng of random hexadeoxynucleotide primer (Amersham Biosciences, Piscataway, N.J.). After synthesis, the reaction mixture was diluted 1:3 with water and immediately subjected to PCR, which was carried out using GenAmp PCR System 2400 (Perkin Elmer Instruments, Shelton, Conn.). […]

LHRH receptor = target: T1, LHRH receptor (human, UniProt P30968 1-328); test: cell-based or functional assay
T1 sequence (looked up): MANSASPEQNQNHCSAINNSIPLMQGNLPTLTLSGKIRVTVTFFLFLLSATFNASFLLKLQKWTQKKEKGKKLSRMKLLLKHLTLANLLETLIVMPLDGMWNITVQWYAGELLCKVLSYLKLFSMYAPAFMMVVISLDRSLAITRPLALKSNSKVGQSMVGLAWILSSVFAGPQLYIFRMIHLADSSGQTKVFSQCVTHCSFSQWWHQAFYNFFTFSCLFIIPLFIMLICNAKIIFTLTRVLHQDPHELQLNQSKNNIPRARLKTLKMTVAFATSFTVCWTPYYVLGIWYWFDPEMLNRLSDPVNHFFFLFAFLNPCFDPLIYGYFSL

[9] = A2780, 48 hours, IC50 dose of peptide, ratio of band intensity to β2-m internal standard

CCNC(=O)[C@@H]1CCCN1C(=O)[C@H](CCCNC(=N)N)NC(=O)[C@H](CC(C)C)NC(=O)[C@@H](CCCCN)NC(=O)[C@H](Cc1ccc(O)cc1)NC(=O)[C@H](CO)NC(=O)[C@H](Cc1c[nH]c2ccccc12)NC(=O)[C@H](Cc1c[nH]cn1)NC(=O)[C@@H]1CCC(=O)N1 [LHRH peptide, LHRH-Lys^6-des-Gly^10-Pro^9-ethylamide, reference compound]
toxicity [1]: did not have any significant toxicity

RQIKIWFQNRRMKWKKMGQVGRQLAIIGDDINRRY [Ant-BH3]
toxicity [1]: toxic | Expression, % of Control: AVEN [2]: 78 ± 2 % of Control | Expression, % of Control: BAG [2]: 56 ± 5 % of Control | Expression, % of Control: BCL-2 [2]: 66 ± 7 % of Control | Expression, % of Control: BCL-W [2]: 97 ± 8 % of Control | Expression, % of Control: BCL-XL [2]: 64 ± 3 % of Control | Expression, % of Control: BFL [2]: 70 ± 2 % of Control | Expression, % of Control: DAD-1 [2]: 99 ± 5 % of Control | Expression, % of Control: MCL-1L [2]: 108 ± 8 % of Control | Expression, % of Control: BAD [3]: 90 ± 8 % of Control | Expression, % of Control: BAX [3]: 91 ± 9 % of Control | Expression, % of Control: BCL-G [3]: 87 ± 11 % of Control | Expression, % of Control: BCL-XS [3]: 168 ± 11 % of Control | Expression, % of Control: BID [3]: 99 ± 9 % of Control | Expression, % of Control: BIK [3]: 511 ± 42 % of Control | Expression, % of Control: BIM [3]: 114 ± 17 % of Control | Expression, % of Control: BNIP-1 [3]: 93 ± 8 % of Control | Expression, % of Control: BNIP-2 [3]: 173 ± 14 % of Control | Expression, % of Control: BNIP-3 [3]: 69 ± 6 % of Control | Expression, % of Control: HRK [3]: 88 ± 10 % of Control | Expression, % of Control: MLS-1S [3]: 130 ± 11 % of Control | Expression, % of Control: NIX [3]: 89 ± 10 % of Control | changes in mitochondrial membrane potential [4]: did not lead to statistically significant changes | Mean Gene Expression ± SD: APAF-1 [5, 9]: 78 ± 3 | Mean Gene Expression ± SD: Caspase 2 [5, 9]: 134 ± 5 | Mean Gene Expression ± SD: Caspase 3 [5, 9]: 60 ± 5 | Mean Gene Expression ± SD: Caspase 6 [5, 9]: 77 ± 5 | Mean Gene Expression ± SD: Caspase 7 [5, 9]: 88 ± 8 | Mean Gene Expression ± SD: Caspase 8 [5, 9]: 70 ± 6 | Mean Gene Expression ± SD: Caspase 9 [5, 9]: 126 ± 11 | Mean Gene Expression ± SD: Caspase 10 [5, 9]: 48 ± 3 | Mean Gene Expression ± SD: SMAC [5, 9]: 77 ± 2 | expression of APAF-1 and SMAC ([5]; A2780 cells): up-regulation | toxicity [6]: toxic

Arg-Gln-Ile-lys-Ile-Trp-Phe-Gln-Asn-Arg-Arg-Met-Lys-Trp-Lys-Lys (RQIKIWFQNRRMKWKK; Antennapedia internalization peptide)
concentration up to which not toxic [7]: > 1 mg/mL

Met-Gly-Gln-Val-Gly-Arg-Gln-Leu-Ala-Ile-Ile-Gly-Asp-Asp-Ile-Asn-Arg-Arg-Tyr (MGQVGRQLAIIGDDINRRY; Synthetic BH3 domain peptide) [BH3 peptide]
concentration up to which not toxic ([1]; A2780, maximal possible concentration limited by solubility): > 1 mg/mL | expression of caspases 1, 4, and 5 ([5]; A2780 cells): not expressed

CC[C@@]1(O)C(=O)OCc2c1cc1n(c2=O)Cc2cc3ccccc3nc2-1 [CPT, camptothecin]
activation of caspase-dependent apoptosis pathway and cellular antiapoptotic defense (gene expression) [8]: activated both caspase-dependent pathways of apoptosis and cellular antiapoptotic defense

QHWSY[dK]LRP-NHEt (ends and bridges not checked) [LHRH-Lys^6-des-Gly^10-Pro^9-ethylamide (active analog of the LHRH peptide)]
concentration of LHRH that decreased cytotoxicity of LHRH-BH3 peptide by 50% (EC50 dose of LHRH peptide), A2780 cells (LHRH receptor): 7.3e-05 ng/mL

B1: LHRH-BH3 peptide (peptide)
peptide 1: QHWSY[dK]LRP-NHEt
peptide 2: MGQVGRQLAIIGDDINRRY
modifications: ends and bridges not checked; also: LHRH analog and BH3 peptide are joined, the linkage is not given here
cytotoxicity IC50 (modified MTT assay), LHRHR-positive A2780 human ovarian cancer cells (LHRH receptor): 3.97 ng/mL | toxicity in MCF-7 cells (LHRHR expression 1.6-fold less) relative to toxicity in A2780 cells, fold less (LHRH receptor): 10 fold | toxicity in PC-3 cells (LHRHR expression 3.2-fold less) relative to toxicity in A2780 cells, fold less (LHRH receptor): 100 fold

Source: patent US8124051B2, “Complex drug delivery composition and method for treating cancer” (priority 2003, dated 2012)
